Patent publication US6737383B1, “Herbicidal oxadiazolidines” (priority 1999, dated 2004)

Assays:
[1] = test system: bedstraw; experiment: Test B pre/postemergence bedstraw; type: in vivo, Galium aparine
How it was run: (§1)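 Herbicidal effect was estimated by eye on a ten-point control scale after plants spent twelve to sixteen days in a greenhouse following soil or foliar treatment. Foliar sprays targeted plants at one to four leaves; all doses were formulated in a non-phytotoxic solvent with surfactant.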

[2] = test system: blackgrass; experiment: Test B pre/postemergence blackgrass; type: in vivo, Alopecurus myosuroides
How it was run: as §1

[3] = test system: surinam grass; experiment: Test B pre/postemergence surinam grass; type: in vivo, Brachiaria decumbens
How it was run: as §1

[4] = test system: cocklebur; experiment: Test B pre/postemergence cocklebur; type: in vivo, Xanthium strumarium
How it was run: as §1

[5] = test system: corn; experiment: Test B pre/postemergence corn; type: in vivo, Zea mays
How it was run: as §1

[6] = test system: crabgrass; experiment: Test B pre/postemergence crabgrass; type: in vivo, Digitaria sanguinalis
How it was run: as §1

[7] = test system: giant foxtail; experiment: Test B pre/postemergence giant foxtail; type: in vivo, Setaria faberii
How it was run: as §1

[8] = test system: morningglory; experiment: Test B pre/postemergence morningglory; type: in vivo, Ipomoea hederacea
How it was run: as §1

[9] = test system: pigweed; experiment: Test B pre/postemergence pigweed; type: in vivo, Amaranthus retroflexus
How it was run: as §1

[10] = test system: rape; experiment: Test B pre/postemergence rape; type: in vivo, Brassica napus
How it was run: as §1

[11] = test system: soybean; experiment: Test B pre/postemergence soybean; type: in vivo, Glycine max
How it was run: as §1

[12] = test system: sugar beet; experiment: Test B pre/postemergence sugar beet; type: in vivo, Beta vulgaris
How it was run: as §1

[13] = test system: velvetleaf; experiment: Test B pre/postemergence velvetleaf; type: in vivo, Abutilon theophrasti
How it was run: as §1

[14] = test system: wheat; experiment: Test B pre/postemergence wheat; type: in vivo, Triticum aestivum
How it was run: as §1

[15] = test system: wild oat; experiment: Test B pre/postemergence wild oat; type: in vivo, Avena fatua
How it was run: as §1

[16] = test system: purple nutsedge; experiment: Test B pre/postemergence purple nutsedge; type: in vivo, Cyperus rotundus
How it was run: as §1

[17] = Postemergence, Rate 125 g/ha, scale 0 to 10, 0 is no effect, 10 is complete control
[18] = Postemergence, Rate 500 g/ha, scale 0 to 10, 0 is no effect, 10 is complete control
[19] = Preemergence, Rate 62 g/ha, scale of 0 to 10 where 0 is no effect and 10 is complete control
[20] = Preemergence, Rate 125 g/ha, scale 0 to 10, 0 is no effect, 10 is complete control
[21] = Preemergence, Rate 250 g/ha, scale 0 to 10, 0 is no effect, 10 is complete control
[22] = Preemergence, Rate 500 g/ha, scale 0 to 10, 0 is no effect, 10 is complete control
[23] = Postemergence, Rate 62 g/ha, scale of 0 to 10, 0 is no effect, 10 is complete control
[24] = Postemergence, Rate 250 g/ha, scale 0 to 10
[25] = Preemergence, Rate 500 g/ha, scale of 0 to 10 where 0 is no effect and 10 is complete control

CCOCn1c(=O)on(C(=O)N(c2ccc(F)cc2F)C(C)C)c1=O [Compound 504]
Bedstraw plant response rating [1, 17]: 8 | Plant response rating, Bedstraw [1, 18]: 9 | Plant response rating, Bedstraw [1, 19]: 2 | Bedstraw plant response rating [1, 20]: 5 | Bedstraw plant response rating [1, 21]: 8 | Bedstraw plant response rating [1, 22]: 8 | Blackgrass plant response rating [2, 23]: 6 | Blackgrass plant response rating [2, 17]: 7 | Blackgrass plant response rating [2, 24]: 7 | Plant response rating, Blackgrass [2, 18]: 8 | Plant response rating, Blackgrass [2, 19]: 6 | Blackgrass plant response rating [2, 20]: 8 | Blackgrass plant response rating [2, 21]: 10 | Blackgrass plant response rating [2, 25]: 10 | B. signalgrass plant response rating [3, 23]: 0 | B. signalgrass plant response rating [3, 17]: 3 | B. signalgrass plant response rating ([3]; Postemergence, Rate 250 g/ha, scale 0 to 10, 0 no effect, 10 complete control): 8 | Plant response rating, B. signalgrass [3, 18]: 9 | Plant response rating, B. signalgrass [3, 19]: 7 | B. signalgrass plant response rating [3, 20]: 10 | B. signalgrass plant response rating [3, 21]: 10 | B. signalgrass plant response rating [3, 22]: 10 | Cocklebur plant response rating [4, 23]: 2 | Cocklebur plant response rating [4, 17]: 3 | Cocklebur plant response rating [4, 24]: 6 | Plant response rating, Cocklebur [4, 18]: 6 | Plant response rating, Cocklebur [4, 19]: 0 | Cocklebur plant response rating [4, 20]: 0 | Cocklebur plant response rating [4, 21]: 0 | Cocklebur plant response rating [4, 25]: 0 | Corn plant response rating [5, 23]: 0 | Corn plant response rating [5, 17]: 2 | Corn plant response rating [5, 24]: 2 | Plant response rating, Corn [5, 18]: 6 | Plant response rating, Corn [5, 19]: 0 | Corn plant response rating [5, 20]: 5 | Corn plant response rating [5, 25]: 6 | Crabgrass plant response rating [6, 23]: 8 | Crabgrass plant response rating [6, 17]: 8 | Crabgrass plant response rating [6, 24]: 9 | Plant response rating, Crabgrass [6, 18]: 10 | Plant response rating, Crabgrass [6, 19]: 6 | Crabgrass plant response rating [6, 20]: 6 | Crabgrass plant response rating [6, 25]: 10 | Giant foxtail plant response rating [7, 23]: 8 | Giant foxtail plant response rating [7, 17]: 9 | Plant response rating, Giant foxtail [7, 18]: 9 | Plant response rating, Giant foxtail [7, 19]: 9 | Giant foxtail plant response rating [7, 20]: 9 | Giant foxtail plant response rating [7, 25]: 10 | Morningglory plant response rating [8, 23]: 4 | Morningglory plant response rating [8, 17]: 4 | Plant response rating, Morningglory [8, 18]: 6 | Plant response rating, Morningglory [8, 19]: 0 | Morningglory plant response rating [8, 20]: 0 | Morningglory plant response rating [8, 25]: 4 | Redroot pigweed plant response rating [9, 23]: 7 | Redroot pigweed plant response rating [9, 17]: 8 | Plant response rating, Redroot pigweed [9, 18]: 9 | Plant response rating, Redroot pigweed [9, 19]: 10 | Redroot pigweed plant response rating [9, 20]: 10 | Redroot pigweed plant response rating [9, 25]: 10 | Rape plant response rating [10, 23]: 1 | Rape plant response rating [10, 17]: 4 | Plant response rating, Rape [10, 18]: 8 | Plant response rating, Rape [10, 19]: 5 | Rape plant response rating [10, 20]: 10 | Rape plant response rating [10, 25]: 10 | Soybean plant response rating [11, 23]: 3 | Soybean plant response rating [11, 17]: 6 | Plant response rating, Soybean [11, 18]: 7 | Plant response rating, Soybean [11, 19]: 0 | Soybean plant response rating [11, 20]: 0 | Soybean plant response rating [11, 25]: 5 | Sugarbeets plant response rating [12, 23]: 5 | Sugarbeets plant response rating [12, 17]: 7 | Plant response rating, Sugarbeets [12, 18]: 9 | Plant response rating, Sugarbeets [12, 19]: 4 | Sugarbeets plant response rating [12, 20]: 6 | Sugarbeets plant response rating [12, 25]: 9 | Velvetleaf plant response rating [13, 23]: 1 | Velvetleaf plant response rating [13, 17]: 4 | Plant response rating, Velvetleaf [13, 18]: 7 | Plant response rating, Velvetleaf [13, 19]: 1 | Velvetleaf plant response rating [13, 20]: 5 | Velvetleaf plant response rating [13, 25]: 10 | Wheat plant response rating [14, 23]: 0 | Wheat plant response rating [14, 17]: 3 | Plant response rating, Wheat [14, 18]: 6 | Plant response rating, Wheat [14, 19]: 2 | Wheat plant response rating [14, 20]: 6 | Wheat plant response rating [14, 25]: 8 | Wild oats plant response rating [15, 23]: 0 | Wild oats plant response rating [15, 17]: 6 | Plant response rating, Wild oats [15, 18]: 7 | Plant response rating, Wild oats [15, 19]: 6 | Wild oats plant response rating [15, 20]: 8 | Wild oats plant response rating [15, 25]: 10 | Nutsedge plant response rating [16, 23]: 0 | Nutsedge plant response rating [16, 17]: 0 | Plant response rating, Nutsedge [16, 18]: 3 | Plant response rating, Nutsedge [16, 19]: 2 | Nutsedge plant response rating [16, 20]: 0 | Nutsedge plant response rating [16, 25]: 8
